This assay deals with T1, human μ opiate receptor (Homo sapiens, UniProt P35372).
T1 construct: purchased PerkinElmer Life Sciences, Zaventem, Belgium RB-HOM; host or cells: CHO-K1 cells (recombinant expression)
Nature of the assay: Affinity for the human μ opiate receptor ([3H]-naloxone displacement, CHO-K1 membrane preparation, SPA). It counts as binding. The following applies: compounds prepared via automated synthesis, single measurements at a test concentration of 1 μM. The method, then:
The receptor affinity for the human μ opiate receptor is determined in a homogeneous set-up in microtitre plates. For this purpose, dilution series of the substances to be tested are incubated with a receptor membrane preparation (15-40 μg of protein/250 μl of incubation batch) of CHO-K1 cells which express the human μ opiate receptor (RB-HOM receptor membrane preparation from PerkinElmer Life Sciences, Zaventem, Belgium) in the presence of 1 nmol/l of the radioactive ligand [^3H]-naloxone (NET719, PerkinElmer Life Sciences, Zaventem, Belgium) and 1 mg of WGA-SPA-Beads (wheat germ agglutinin SPA beads from Amersham/Pharmacia, Freiburg, Germany) in a total volume of 250 μl for 90 minutes at room temperature. 50 mmol/l of Tris-HCl supplemented with 0.06% of bovine serum albumin are used as the incubation buffer. 100 μmol/l of naloxone are additionally added for determination of the non-specific binding. After the end of the ninety-minute incubation time, the microtitre plates are centrifuged for 20 minutes at 1,000 g and the radioactivity is measured in a β-counter (Microbeta-Trilum, PerkinElmer Wallac, Freiburg, Germany). The percentage displacement of the radioactive ligand from its binding to the human μ opiate receptor is determined at a concentration of the test substances of 1 μmol/l and stated as the percentage inhibition of the specific binding. Starting from the percentage displacement by various concentrations of the test substances, IC50 inhibitory concentrations which cause a 50 percent displacement of the radioactive ligand are calculated. By conversion by means of the Cheng-Prusoff relationship, Ki values for the test substances are obtained.

T1 sequence (P35372 whole entry): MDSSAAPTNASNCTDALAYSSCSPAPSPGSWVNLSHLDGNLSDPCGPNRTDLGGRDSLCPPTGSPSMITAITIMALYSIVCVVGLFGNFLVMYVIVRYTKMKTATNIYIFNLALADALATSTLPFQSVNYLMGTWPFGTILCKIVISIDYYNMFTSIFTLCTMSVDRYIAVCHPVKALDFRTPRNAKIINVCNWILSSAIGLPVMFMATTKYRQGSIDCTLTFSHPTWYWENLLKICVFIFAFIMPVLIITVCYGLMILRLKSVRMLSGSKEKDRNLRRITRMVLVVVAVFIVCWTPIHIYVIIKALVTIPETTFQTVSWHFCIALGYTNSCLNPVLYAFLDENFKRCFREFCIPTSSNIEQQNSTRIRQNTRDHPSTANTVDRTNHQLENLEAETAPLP

Regarding `CN(C)C(c1cccc(F)c1)C1CCC2(CC1)c1[nH]c3ccccc3c1CCN2C(=O)COc1ccc(Cl)cc1` (centres unmarked) [Compound 70, 2-[(4-chlorophenoxy)acetyl]-{1,1-[3-(dimethylamino-(3-fluorophenyl)methyl)-pentamethylene]-3,4-dihydro-1H-2,9-diazafluorene}], the “μ opioid receptor [1 μmol], % inhibition” value amounted to 31%.

Take `CN(C)C(c1ccc(Cl)cc1)C1CCC2(CC1)c1[nH]c3ccccc3c1CCN2C(=O)COCc1ccccc1` (centres unmarked) [Compound 99, 2-(benzyloxyacetyl)-{1,1-[3-(dimethylamino-(4-chlorophenyl)methyl)-pentamethylene]-3,4-dihydro-1H-2,9-diazafluorene}]: the “μ opioid receptor [1 μmol], % inhibition” value was determined as 35%.

For `CN(C)C(c1cccc(F)c1)C1CCC2(CC1)c1[nH]c3ccccc3c1CCN2C(=O)C=Cc1ccccc1Cl` (centres unmarked) [Compound 72, 1-{1,1-[3-(dimethylamino-(3-fluorophenyl)methyl) -pentamethylene]-3,4-dihydro-1H-2,9-diazafluoren-2-yl}-3-(2-chlorophenyl)prop-2-en-1-one], the “μ opioid receptor [1 μmol], % inhibition” value is given as 24%.

`CN(C)C(c1ccc(Cl)cc1)C1CCC2(CC1)c1[nH]c3ccccc3c1CCN2C(=O)CCc1ccccc1` (centres unmarked) [Compound 135, (3-phenylpropanoyl)-1-{1,1-[3-(dimethylamino-(4-chlorophenyl)methyl)-pentamethylene]-3,4-dihydro-1H-2,9-diazafluorene}]: the “μ opioid receptor [1 μmol], % inhibition” value (1 µM) came out at 38%.

As for `CN(C)C(c1cccc(F)c1)C1CCC2(CC1)c1[nH]c3ccccc3c1CCN2C(=O)Cc1ccc(F)cc1` (centres unmarked) [Compound 116, 2-[(4-fluorophenyl)acetyl]-{1,1-[3-(dimethylamino-(3-fluorophenyl)methyl)-pentamethylene]-3,4-dihydro-1H-2,9-diazafluorene}], the “μ opioid receptor [1 μmol], % inhibition” value came out at 20%.

For the compound `COCC(=O)N1CCc2c([nH]c3ccccc23)C12CCC(C(c1cccc(F)c1)N(C)C)CC2` (centres unmarked) [Compound 92, 2-(methoxyacetyl)-{1,1-[3-(dimethylamino-(3-fluorophenyl)methyl)-pentamethylene]-3,4-dihydro-1H-2,9-diazafluorene}], the “μ opioid receptor [1 μmol], % inhibition” value was determined as 22%.

Turning to `CC(=O)N1CCc2c([nH]c3ccccc23)C12CCC(C(c1ccccc1)N(C)C)CC2` (centres unmarked) [Compound 79, 2-acetyl-{1,1-[3-(dimethylamino-phenylmethyl) -pentamethylene]-3,4-dihydro-1H-2,9-diazafluorene}], the “μ opioid receptor [1 μmol], % inhibition” value came out at 4%.

As for `CC(CC(=O)N1CCc2c([nH]c3ccccc23)C12CCC(C(c1cccc(F)c1)N(C)C)CC2)c1ccccc1` (centres unmarked) [Compound 130, 1-{1,1-[3-(dimethylamino-(3-fluorophenyl)methyl) -pentamethylene]-3,4-dihydro-1H-2,9-diazafluoren-2-yl}-3-phenylbutan-1-one], the “μ opioid receptor [1 μmol], % inhibition” value is 49%.

For `CN(C)C(c1ccc(F)cc1)C1CCC2(CC1)c1[nH]c3ccccc3c1CCN2C(=O)Cc1ccc(F)cc1` (centres unmarked) [Compound 110, 2-[(4-fluorophenyl)acetyl]-{1,1-[3-(dimethylamino-(4-fluorophenyl)methyl)-pentamethylene]-3,4-dihydro-1H-2,9-diazafluorene}], the “μ opioid receptor [1 μmol], % inhibition” value was 14%.

With `CC(=Cc1ccccc1)C(=O)N1CCc2c([nH]c3ccccc23)C12CCC(C(c1ccc(Cl)cc1)N(C)C)CC2` (centres unmarked) [Compound 75, 1-{1,1-[3-(dimethylamino-(4-chlorophenyl)methyl) -pentamethylene]-3,4-dihydro-1H-2,9-diazafluoren-2-yl}-2-methyl-3-phenylprop-2-en-1-one], the “μ opioid receptor [1 μmol], % inhibition” value came to 13%.

Turning to `CCC(=O)N1CCc2c([nH]c3ccccc23)C12CCC(C(c1ccccc1)N(C)C)CC2` (centres unmarked) [Compound 102, 2-propionyl-{1,1-[3-(dimethylamino-phenylmethyl) -pentamethylene]-3,4-dihydro-1H-2,9-diazafluorene}], the “μ opioid receptor [1 μmol], % inhibition” value was found to be 55%.

Take `COc1cccc(CC(=O)N2CCc3c([nH]c4ccccc34)C23CCC(C(c2ccc(F)cc2)N(C)C)CC3)c1` (centres unmarked) [Compound 140, 2-[(3-methoxyphenyl)acetyl]-{1,1-[3-(dimethylamino-(4-fluorophenyl)methyl)-pentamethylene]-3,4-dihydro-1H-2,9-diazafluorene}]: the “μ opioid receptor [1 μmol], % inhibition” value was 47%.

`COc1ccc(CC(=O)N2CCc3c([nH]c4ccccc34)C23CCC(C(c2ccc(Cl)cc2)N(C)C)CC3)cc1OC` (centres unmarked) [Compound 74, 2-[(3,4-dimethoxyphenyl)acetyl]-{1,1-[3-(dimethylamino-(4-chlorophenyl)-methyl)-pentamethylene]-3,4-dihydro-1H-2,9-diazafluorene}]: the “μ opioid receptor [1 μmol], % inhibition” value came to 37%.

Consider `COCC(=O)N1CCc2c([nH]c3ccccc23)C12CCC(C(c1ccccc1)N(C)C)CC2` (centres unmarked) [Compound 81, 2-(methoxyacetyl)-{1,1-[3-(dimethylamino-phenylmethyl) -pentamethylene]-3,4-dihydro-1H-2,9-diazafluorene}], for which the “μ opioid receptor [1 μmol], % inhibition” value amounted to 0%.

Regarding `CN(C)C(c1ccc(Cl)cc1)C1CCC2(CC1)c1[nH]c3ccccc3c1CCN2C(=O)CCc1ccccc1` (centres unmarked) [Compound 131, 2-(3-phenylpropanoyl)-{1,1-[3-(dimethylamino-(4-chlorophenyl)methyl)-pentamethylene]-3,4-dihydro-1H-2,9-diazafluorene}], the “μ opioid receptor [1 μmol], % inhibition” value (1 µM) came out at 51%.

As for `CCCCC(CC)C(=O)N1CCc2c([nH]c3ccccc23)C12CCC(C(c1ccc(Cl)cc1)N(C)C)CC2` (centres unmarked) [Compound 118, 2-(2-ethylhexanoyl)-{1,1-[3-(dimethylamino-(4-chlorophenyl)methyl)-pentamethylene]-3,4-dihydro-1H-2,9-diazafluorene}], the “μ opioid receptor [1 μmol], % inhibition” value is 35%.

`CC(C)C(=O)N1CCc2c([nH]c3ccccc23)C12CCC(C(c1ccc(Cl)cc1)N(C)C)CC2` (centres unmarked) [Compound 119, 2-isobutyryl-{1,1-[3-(dimethylamino-(4-chlorophenyl)methyl)-pentamethylene]-3,4-dihydro-1H-2,9-diazafluorene}]: the “μ opioid receptor [1 μmol], % inhibition” value worked out at 40%.

On to `CC(=O)N1CCc2c([nH]c3ccccc23)C12CCC(C(c1cccc(F)c1)N(C)C)CC2` (centres unmarked) [Compound 89, acetyl-{1,1-[3-(dimethylamino-(3-fluorophenyl)methyl) -pentamethylene]-3,4-dihydro-1H-2,9-diazafluorene}], for which the “μ opioid receptor [1 μmol], % inhibition” value is reported as 10%.

As to `CN(C)C(c1ccccc1)C1CCC2(CC1)c1[nH]c3ccccc3c1CCN2C(=O)COc1ccc(Cl)cc1` (centres unmarked) [Compound 60, 2-[(4-chlorophenoxy)acetyl]-{1,1-[3-(dimethylamino-phenylmethyl)-pentamethylene]-3,4-dihydro-1H-2,9-diazafluorene}], the “μ opioid receptor [1 μmol], % inhibition” value worked out at 26%.

`CN(C)C(c1cccc(F)c1)C1CCC2(CC1)c1[nH]c3ccccc3c1CCN2C(=O)COCc1ccccc1` (centres unmarked) [Compound 94, 2-(benzyloxyacetyl)-{1,1-[3-(dimethylamino-(3-fluorophenyl)methyl)-pentamethylene]-3,4-dihydro-1H-2,9-diazafluorene}]: the “μ opioid receptor [1 μmol], % inhibition” value turned out to be 32%.
